Like-named read-outs stand apart in the source and are kept apart here.
How the values were obtained:
[1] = Microsome stability study; format: in vitro ADME, mouse; conditions: for half-life at 2 μM / microsomal CLint at 2 μM / CLint scaled at 2 μM: CD-1, pH 7.4; for half-life at 2 μM / microsomal CLint at 2 μM: male mouse liver microsomes 0.5 mg/mL, NADPH; for CLint scaled at 2 μM: male, read-out: Scaled-up CLint; for CLint scaled at 2 μM / Predicted hepatic CL: mouse liver microsomes
Description: Pooled CD-1 mouse liver microsomes at 0.5 mg/mL were pre-incubated in phosphate buffer (100 mM, pH 7.4) containing 1 mM NADPH and 3 mM MgCl2 in a 96-well plate for 5 minutes at 37° C. Ultra-pure water was added instead of NADPH in the negative control group to exclude the misleading factor that resulted from instability of chemical itself. The reaction was initiated by adding test compound at the final concentration of 2 μM and incubated at 37° C. Aliquots were taken from the incubation at 0, 15, 30, 45 and 60 minutes followed by the addition of 4 volume of cold acetonitrile containing internal standards. Samples were centrifuged and supernatant was used for LC-MS/MS analysis.

[2] = biological target: T1, Bovine lysyl oxidase (LOX) (Bos taurus, UniProt P33072); experiment: LOX inhibition assay (fluorometric, cadaverine/Amplex Red/HRP); format: biochemical; conditions: IC50 class; bovine tendon LOX, cadaverine substrate; read-out: Activity Range LOX
T1 construct: from tissue; host or cells: adult bovine tendon
T1 sequence (P33072 170-418): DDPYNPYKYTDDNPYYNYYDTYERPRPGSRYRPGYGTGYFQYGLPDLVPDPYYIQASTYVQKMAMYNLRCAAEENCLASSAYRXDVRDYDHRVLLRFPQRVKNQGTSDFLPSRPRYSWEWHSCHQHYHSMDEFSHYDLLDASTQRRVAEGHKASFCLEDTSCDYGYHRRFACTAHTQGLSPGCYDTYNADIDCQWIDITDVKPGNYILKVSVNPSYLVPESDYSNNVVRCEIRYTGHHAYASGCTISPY
How it was run: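 Bovine tendon-extracted LOX was preincubated 30 min at 37 °C with compound. Cadaverine/Amplex Red/HRP was then added and fluorescence (ex530/em600) monitored for 120 min at 37 °C. Progress-curve slopes, background-subtracted against no-protein wells, were normalised to DMSO controls and fitted with a four-parameter variable-slope dose-response model.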

[3] = Permeability study in Caco-2 cell line; format: in vitro ADME; conditions: human; for efflux ratio at 2 h, 5 μM: Caco-2, pH 7.4; for Papp A→B at 2 h, 5 μM: Caco-2, apical to basolateral; for Papp A→B at 2 h, 5 μM / Papp B→A at 2 h, 5 μM: pH 7.4; for Papp B→A at 2 h, 5 μM: Caco-2, basolateral to apical
Description: Caco-2 cell suspensions were dispensed into the inserts of the 96-well HTS Transwell plate and cultivated for 14-18 days. Transepithelial electrical resistance (TEER) across the monolayer was measured using Millicell Epithelial Volt-Ohm measuring system. The Caco-2 plate was then washed twice with pre-warmed HBSS (pH 7.4) and incubated at 37° C. for 30 minutes. To determine the rate of drug transport in the apical to basolateral direction. 5 μM test compound was added to the Transwell insert and the wells in the receiver plate were filled with HBSS (pH 7.4). To determine the rate of drug transport in the basolateral to apical direction, 5 μM test compound was added to the receiver plate wells and then the Transwell inserts were filled with HBSS (pH 7.4). The plates were incubated at 37° C. for 2 hours. 50 μL samples from donor sides and receiver sides were transferred to wells of a new 96-well plate followed by the addition of 4 volume of cold methanol containing internal standards (IS). Samples were centrifuged and the supernatant was used for LC-MS/MS analysis. After the incubation, residue solutions were removed from the Transwell plates, and Lucifer yellow (100 μM) solution was added to each Transwell insert, followed by filling the receiver wells with HBSS. The plates were incubated at 37° C. for 30 minutes. 80 μL samples were removed from the apical and basolateral wells and the fluorescence of Lucifer yellow was measured in a microplate reader with 485 nm excitation and 530 nm emission.

[4] = Caco-2, pH 7.4, Caco-2, apical to basolateral, read-out: Recovery (%)AP-BL
[5] = Caco-2, pH 7.4, Caco-2, basolateral to apical, read-out: Recovery (%)BL-AP

Row | half-life at 2 μM [1] [min] | microsomal CLint at 2 μM [1] [µL/min/mg] | CLint scaled at 2 μM [1] [mL/min/kg] | Predicted hepatic CL [1] [mL/min/kg] | IC50 [2] [nM] | efflux ratio at 2 h, 5 μM [3] | recovery at 2 h, 5 μM [3, 4] [%] | recovery at 2 h, 5 μM [3, 5] [%] | Papp A→B at 2 h, 5 μM [3] [×10⁻⁶ cm/s] | Papp B→A at 2 h, 5 μM [3] [×10⁻⁶ cm/s] | Structure (SMILES)
1 | 37.1 | 37.3 | 163 | 58.02 | ≤ 500 | 30.1 | 72.1 | 83.5 | 0.4 | 12.1 | NCc1ccc(S(=O)(=O)N2C[C@H](C(=O)N3CCS(=O)(=O)CC3)C[C@@H](c3ccccc3)C2)s1.O=C(O)C(F)(F)F (racemic) [Example 75B, trans-(1-((5-(Aminomethyl)thiophen-2-yl)sulfonyl)-5-phenylpiperidin-3-yl)(1,1-dioxidothiomorpholino)methanone 2,2,2-trifluoroacetate]
2 | 24.5 | 56.5 | 247 | 65.98 | ≤ 500 | 138 | 68.6 | 78.2 | 0.11 | 15.6 | CS(=O)(=O)N1CCN(C(=O)[C@H]2C[C@@H](c3ccccc3F)CN(S(=O)(=O)c3ccc(CN)s3)C2)CC1.O=C(O)C(F)(F)F (racemic) [Example 91, cis-(1-((5-(Aminomethyl)thiophen-2-yl)sulfonyl)-5-(2-fluorophenyl)piperidin-3-yl)(4-(methylsulfonyl)piperazin-1-yl)methanone 2,2,2-trifluoroacetate]
3 | 79.7 | 17.4 | 76.1 | 41.24 | ≤ 500 | 24.5 | 76.8 | 78.8 | 1.16 | 28.5 | NCc1ccc(S(=O)(=O)N2C[C@H](C(=O)N3CCOCC3)C[C@H](c3ccccc3)C2)s1 [Example 13B, ((3R,5R)-1-((5-(aminomethyl)thiophen-2-yl)sulfonyl)-5-phenylpiperidin-3-yl)(morpholino)methanone]

From patent US20230310445A1, “LOX ENZYME INHIBITING METHODS AND COMPOSITIONS” (ANOVIA BIOSCIENCES, INC., priority 2020, published 2023)
